# Data: the NIST ThermoML archive (doi:10.1016/j.fluid.2014.09.011)
# Numbers after ± are expanded uncertainties.
# Assay: activity coefficient (dimensionless); of the first substance listed, at infinite dilution; xn = mol fraction of the nth substance listed
# Settings: 298.15 K; 238 kPa; Liquid; Chromatography; x1 = 0
row,Structure (SMILES),activity coefficient
1,CC(C)(C)Cl [2-chloro-2-methylpropane] + CC(O)CCO,18.1 ± 3.1
2,CC(C)(C)Cl [2-chloro-2-methylpropane] + CO,6.1 ± 0.3
3,CC(C)(C)Cl [2-chloro-2-methylpropane] + CCC(O)CO,6.4 ± 0.5
4,CC(C)(C)Cl [2-chloro-2-methylpropane] + OCCO,51.7 ± 10
5,CC(C)(C)Cl [2-chloro-2-methylpropane] + ClCCCl,0.99 ± 0.1
6,CC(C)(C)Cl [2-chloro-2-methylpropane] + CC(C)O,3 ± 0.6
7,CC(C)(C)Cl [2-chloro-2-methylpropane] + CCCO,3.1 ± 0.4
8,CC(C)(C)Cl [2-chloro-2-methylpropane] + C1CCCCC1,1.2 ± 0.2
9,CC(C)(C)Cl [2-chloro-2-methylpropane] + CCCCO,2.4 ± 0.4
10,CC(C)(C)Cl [2-chloro-2-methylpropane] + CCOC(C)=O,0.9 ± 0.2
11,CC(C)(C)Cl [2-chloro-2-methylpropane] + CC(O)CO,17.3 ± 2.1
12,CC(C)(C)Cl [2-chloro-2-methylpropane] + CCO,4.5 ± 0.6
13,CC(C)(C)Cl [2-chloro-2-methylpropane] + OCCOCCOCCO,6.8 ± 0.8
14,CC(C)(C)Cl [2-chloro-2-methylpropane] + CNC=O,6.3 ± 0.3
15,CC(C)(C)Cl [2-chloro-2-methylpropane] + COCCO,2.9 ± 0.4
16,CC(C)(C)Cl [2-chloro-2-methylpropane] + CCCCCCC,1.02 ± 0.08
17,CC(C)(C)Cl [2-chloro-2-methylpropane] + CCCCCCCC,1.3 ± 0.2
18,CC(C)(C)Cl [2-chloro-2-methylpropane] + CCCCCCO,2.4 ± 0.2
19,CC(C)(C)Cl [2-chloro-2-methylpropane] + CCCCCO,2.4 ± 0.4
20,CC(C)(C)Cl [2-chloro-2-methylpropane] + c1ccccc1,0.89 ± 0.08
21,CC(C)(C)Cl [2-chloro-2-methylpropane] + OCCOCCO,11.2 ± 2
22,CC(C)(C)Cl [2-chloro-2-methylpropane] + CC(O)C(C)O,12.3 ± 2
